This note sets out measurements from patent US7473694B2, “Pyrazolopyrimidine derivatives or pharmaceutically acceptable salts thereof” (Teijin Pharma Limited, priority 2005, dated 2009).

Usually IC50 stands for the midpoint of a concentration-inhibition curve.

For the test, the target named is recombinant human MAPKAP-K2 (Homo sapiens, UniProt P49137). As to the kind of experiment: Inhibition of MAPKAP-K2 enzyme activity (33P-ATP peptide substrate phosphorylation). The settings on record: recombinant human MAPKAP-K2 10 mU, room temperature 30 min, peptide substrate Lys-Lys-Leu-Asn-Arg-Thr-Leu-Ser-Val-Ala; read-out: Activity strength (IC50 against MAPKAP-K2). In kind it is biochemical. As to the method: General Measurement Method for Determining Inhibition of MAPKAP-K2 Enzyme Activity
recombinant human MAPKAP-K2, sequence (P49137 whole entry): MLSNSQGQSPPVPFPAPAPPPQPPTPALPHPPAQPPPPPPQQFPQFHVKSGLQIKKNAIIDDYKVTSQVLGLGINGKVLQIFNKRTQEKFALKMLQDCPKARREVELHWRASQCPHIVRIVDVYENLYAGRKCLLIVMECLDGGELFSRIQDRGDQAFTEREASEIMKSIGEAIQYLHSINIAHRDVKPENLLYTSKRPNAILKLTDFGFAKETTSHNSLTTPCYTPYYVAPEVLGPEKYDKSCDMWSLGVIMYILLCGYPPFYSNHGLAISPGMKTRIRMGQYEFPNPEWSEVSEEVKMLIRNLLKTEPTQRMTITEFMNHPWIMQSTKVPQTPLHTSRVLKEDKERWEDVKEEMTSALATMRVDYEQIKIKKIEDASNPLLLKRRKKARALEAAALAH
(Preparation of Solutions of Compounds)
Each compound was dissolved to DMSO to prepare a solution with a concentration of 20 mmol/L and this solution was stored at −20° C. This stock solution was diluted with DMSO successively to prepare solutions with 200-fold concentrations of a necessary range. These solutions were further diluted with water at a ratio of 1:20 to prepare solutions with 10-fold concentrations of a necessary range. Each of these solutions (5 μL) was used for each reaction in 50 μL-scale. Through the dilution series of all compounds, the final DMSO concentration was kept at 0.5%. Conventional tests for the compounds were carried out at a final concentration ranging from 100 μmol/L to 0.03 μmol/L, but in some cases, tests were carried out at lower concentrations, depending on activity.
(Measurements of MAPKAP-K2 Enzyme Activity)
To a DMSO solution (5 μL) containing a test compound at 5%, a solution (25 μL) containing a peptide substrate [peptide substrate […], ATP 20 μmol/L, Tris buffer 60 mmol/L (pH 7.5), EGTA 0.2 mmol/L, β-mercaptoethanol 0.2%, magnesium acetate 20 mmol/L, [γ-33P]ATP 0.1 μCi (specific radioactivity ca. 110 TBq/mmol)] was added. The reaction was initiated by further adding a solution (20 μL) containing MAPKAP-K2 enzyme [recombinant human MAPKAP-K2 10 mU, Tris buffer 50 mmol/L (pH 7.5), EGTA 0.1 mmol/L, β-mercaptoethanol 0.1%, BSA 0.1%]. After the reaction was carried out at room temperature for 30 min, 200 mmol/L phosphoric acid (50 μL) was added to quench the reaction, and 90 μL of the reaction mixture was adsorbed on a multiscreen PH plate (Millipore). The plate was washed with 100 mmol/L phosphoric acid. After the plate was dried, 30 μL of MicroScint™-O (Perkin-Elmer) was added here, and the radioactivity (cpm) was measured on a scintillation counter to determine the inhibitory activity. The peptide substrate was Lys-Lys-Leu-Asn-Arg-Thr-Leu-Ser-Val-Ala.
(Note) % Reference=(X−B)/(Tot−B)×100 % Inhibition=100%−% Reference • X=count per minute of the well with a test compound • B=count per minute of the well without the enzyme • Tot=count per minute of the well with only DMSO solvent and without a test compound (Calculation of MAPKAP-K2 Inhibitory Activity) • IC50 value=a concentration of compound at which 50% inhibition is observed • The efficacy of each compound in Tables A to G against MAPKAP-K2 is listed in the following Table J.
`CCOc1ccc(Nc2c3c(nc4ccnn24)N([C@H]2CC[C@H](N)CC2)CC3)cc1` [A-002]: the half-inhibitory concentration (IC50) was below 10 µM.

For the compound `CCOc1ccc(Nc2c3c(nc4ccnn24)N(C2CCCC(N)C2)CC3)cc1` (stereo not shown) [A-003], the half-maximal inhibitory concentration (IC50) lay within 10 to 50 µM. For `CCOc1ccc(Nc2c3c(nc4ccnn24)N([C@H]2CCCC[C@@H]2N)CC3)cc1` [A-004] the value was 50 to 100 µM. For the compound `CCOc1ccc(Nc2c3c(nc4ccnn24)N(CCN)CC3)cc1` [A-005], the IC50 is below 10 µM. As for `CCOc1ccc(Nc2c3c(nc4ccnn24)N(CCCN)CC3)cc1` [A-006], the IC50 was below 10 µM.

In the case of `CCOc1ccc(Nc2c3c(nc4ccnn24)N(CC(C)(C)CN)CC3)cc1` [A-007], the IC50 fell in the range of 50 to 100 µM. In the case of `CCOc1ccc(Nc2c3c(nc4ccnn24)N([C@H]2CCCNC2)CC3)cc1` [A-008, (S)-(4-ethoxyphenyl)(5-piperidin-3-yl-6,7-dihydro-5H-1,4,5,8a-tetraaza-s-indacen-8-yl)amine], the IC50 was below 10 µM. In the case of `CCOc1ccc(Nc2c3c(nc4ccnn24)N(C2CCNCC2)CC3)cc1` [A-009] it was below 10 µM; in that of `CCOc1ccc(Nc2c3c(nc4ccnn24)N(C2CCN(Cc4ccccc4)C2)CC3)cc1` (stereo not shown) [A-010], 10 to 50 µM. As for `CCOc1ccc(Nc2c3c(nc4ccnn24)N(C2CCN(CC)C2)CC3)cc1` (stereo not shown) [A-012], the IC50 is 10 to 50 µM. In the case of `CCOc1ccc(Nc2c3c(nc4ccnn24)N(C2CCNC2)CC3)cc1` (stereo not shown) [A-013] it was below 10 µM; in that of `CCOc1ccc(Nc2c3c(nc4ccnn24)N(CC2CCCNC2)CC3)cc1` (stereo not shown) [A-014], 50 to 100 µM. For `CCOc1ccc(Nc2c3c(nc4c(F)cnn24)N([C@H]2CCCNC2)CC3)cc1` [A-018, (S)-(4-Ethoxyphenyl)(3-fluoro-5-piperidin-3-yl-6,7-dihydro-5H-1,4,5,8a-tetraaza-s-indacen-8-yl)amine] the value was below 10 µM. In the case of `CCOc1ccc(Nc2c3c(nc4c(F)c(F)nn24)N([C@H]2CCCNC2)CC3)cc1` [A-019, (S)-(2,3-Difluoro-5-piperidin-3-yl-6,7-dihydro-5H-1,4,5,8a-tetraaza-s-indacen-8-yl)(4-ethoxyphenyl)amine] it was 10 to 50 µM; in that of `CCOc1ccc(Nc2c3c(nc4ccnn24)N(O)CC3)cc1` [A-020, 8-(4-ethoxyphenylamino)-6,7-dihydro-1,4,5,8a-tetraaza-s-indacen-5-ol], below 10 µM. Consider `Cc1nc2ccc(Nc3c4c(nc5ccnn35)N([C@H]3CCCNC3)CC4)cc2s1` [A-022, (S)-(2-methylbenzothiazol-6-yl)(5-piperidin-3-yl-6,7-dihydro-5H-1,4,5,8a-tetraaza-s-indacen-8-yl)amine], for which the concentration for half-maximal inhibition (IC50) was below 10 µM. For `COCCOc1ccc(Nc2c3c(nc4ccnn24)N([C@H]2CCCNC2)CC3)cc1` [A-023, (S)-[4-(2-methoxyethoxy)phenyl](5-piperidin-3-yl-6,7-dihydro-5H-1,4,5,8a-tetraaza-s-indacen-8-yl)amine] the value was below 10 µM. In the case of `CCOc1ccc(Nc2c3c(nc4ccnn24)N([C@H]2CCCNC2)C(CO)C3)cc1` (stereo partly drawn) [A-024, (S)-{8-(4-ethoxyphenylamino)-5-piperidin-3-yl-6,7-dihydro-5H-1,4,5,8a-tetraaza-s-indacen-6-yl]methanol] it was below 10 µM. For `c1ccc(CNc2c3c(nc4ccnn24)N([C@H]2CCCNC2)CC3)cc1` [A-025] the value was below 10 µM; for `CC(C)(C)CNc1c2c(nc3ccnn13)N([C@H]1CCCNC1)CC2` [A-026], below 10 µM; for `c1cc2nc3c(c(NC4CCCC4)n2n1)CCN3[C@H]1CCCNC1` [A-027], below 10 µM. For `c1ccc(Nc2c3c(nc4ccnn24)N([C@H]2CCCNC2)CC3)cc1` [A-032], the IC50 was below 10 µM. In the case of `c1cc2nc3c(c(Nc4ccc5cn[nH]c5c4)n2n1)CCN3[C@H]1CCCNC1` [A-058] it was below 10 µM; in that of `FC(F)(F)c1nc2cc(Nc3c4c(nc5ccnn35)N([C@H]3CCCNC3)CC4)ccc2[nH]1` [A-091], below 10 µM; in that of `Nc1c2c(nc3ccnn13)N([C@H]1CCCNC1)CC2` [A-092, (S)-5-piperidin-3-yl-6,7-dihydro-5H-1,4,5,8a-tetraaza-s-indacen-8-ylamine], below 10 µM.

Regarding `c1coc(Nc2c3c(nc4ccnn24)N([C@H]2CCCNC2)CC3)c1` [A-095, (S)-furan-2-yl-(5-piperidin-3-yl-6,7-dihydro-5H-1,4,5,8a-tetraaza-s-indacen-8-yl)amine], the IC50 is below 10 µM. On to `CNc1c2c(nc3ccnn13)N([C@H]1CCCNC1)CC2` [A-096], for which the concentration for half-maximal inhibition (IC50) was below 10 µM. As to `COC(=O)c1ccc(Nc2c3c(nc4ccnn24)N(C2CCCNC2)CC3)cc1` (stereo not shown) [A-099], the IC50 is below 10 µM. As for `c1cc2nc3c(c(Nc4ccc5sccc5c4)n2n1)CCN3[C@H]1CCCNC1` [A-100], the IC50 is below 10 µM. In the case of `CCOc1ccc(Nc2c3c(nc4ccnn24)N([C@H]2CCCNC2)CCC3)cc1` [B-001] it was below 10 µM; in that of `CCOc1ccc(Nc2c3c(nc4ccnn24)N([C@H]2CC[C@H](N)CC2)CCC3)cc1` [B-002, [5-(4-aminocyclohexyl)-5,6,7,8-tetrahydro-1,4,5,9a-tetraazacyclopenta[b]naphthalen-9-yl](4-ethoxyphenyl)amine], below 10 µM. For `CCOc1ccc(Nc2c3c(nc4ccnn24)N([C@@H]2CCCC[C@@H]2N)CCC3)cc1` [B-003] the value was 10 to 50 µM; for `CCOc1ccc(Nc2c3c(nc4ccnn24)N(CCN(C)C)CCC3)cc1` [B-007], 50 to 100 µM; for `CCOc1ccc(Nc2c3c(nc4ccnn24)N(C2CCCC(N)C2)CCC3)cc1` (stereo not shown) [B-013], 50 to 100 µM. For `CCOc1ccc(Nc2c3c(nc4ccnn24)N(C2CCCNC2)CCC3)cc1` (stereo not shown) [B-014] the value was below 10 µM. In the case of `CCOc1ccc(Nc2c3c(nc4ccnn24)N(CCCN)CCC3)cc1` [B-015], the IC50 was in the range of 10 to 50 µM. In the case of `CCOc1ccc(Nc2c3c(nc4ccnn24)N(C2CCN(Cc4ccccc4)C2)CCC3)cc1` (stereo not shown) [B-016] it was 10 to 50 µM. For `CCOc1ccc(Nc2c3c(nc4ccnn24)N(C2CCNCC2)CCC3)cc1` [B-017] the value was below 10 µM. In the case of `CCOc1ccc(Nc2c3c(nc4ccnn24)N(Cc2cccnc2)CCC3)cc1` [B-018] it was 50 to 100 µM. In the case of `CCOc1ccc(Nc2c3c(nc4ccnn24)N(C2CCNC2)CCC3)cc1` (stereo not shown) [B-021], the half-maximal inhibitory concentration (IC50) was below 10 µM. As to `CCOc1ccc(Nc2c3c(nc4ccnn24)N(C2CCN(CC)C2)CCC3)cc1` (stereo not shown) [B-022], the concentration for half-maximal inhibition (IC50) was 10 to 50 µM. In the case of `CCOc1ccc(Nc2c3c(nc4ccnn24)N([C@H]2CCCNC2)CCCC3)cc1` [C-001, (S)-(4-ethoxyphenyl)(5-piperidin-3-yl-6,7,8,9-tetrahydro-5H-1,4,5,10a-tetraazacyclohepta[f]inden-10-yl)amine] it was below 10 µM; in that of `CCOc1ccc(Nc2c3c(nc4ccnn24)N([C@H]2CCCNC2)C(=O)C3)cc1` [D-001], 10 to 50 µM. In the case of `CCOc1ccc(Nc2c3c(nc4ccnn24)N(C[C@H]2CCCNC2)C(=O)C3)cc1` [D-002] it was 50 to 100 µM; in that of `CCOc1ccc(Nc2c3c(nc4ccnn24)N(CCN)C(=O)C3)cc1` [D-003], 50 to 100 µM. In the case of `CCOc1ccc(Nc2c3c(nc4ccnn24)N([C@H]2CC[C@H](N)CC2)C(=O)C3)cc1` [D-006] it was 10 to 50 µM; in that of `CCOc1ccc(Nc2c3ccn([C@H]4CCCNC4)c3nc3ccnn23)cc1` [F-001, (S)-(4-ethoxyphenyl)(5-piperidin-3-yl-5H-14,5,8a-tetraaza-s-indacen-8-yl)amine], below 10 µM. As for `CCOc1ccc(Nc2c3cc(CO)n([C@H]4CCCNC4)c3nc3ccnn23)cc1` [F-002], the half-maximal inhibitory concentration (IC50) is 10 to 50 µM. In the case of `CCOc1ccc(Nc2c3c(nc4ccnn24)N([C@H]2CCCNC2)CC=CC3)cc1` [G-001, (S)-(4-ethoxyphenyl)(5-piperidin-3-yl-6,9-dihydro-5H-1,4,5,10a-tetraazacyclohepta[f]inden-10-yl)amine], the concentration for half-maximal inhibition (IC50) was below 10 µM.
